According to patent publication US20260042731A1, “(2,4-DICHLOROPHENOXY)ACETIC ACID ANALOGS” (CORTEVA AGRISCIENCE LLC, priority 2022, published 2026):
Where two headings read alike, the source gives them in different places.

Tests used:
[1] = test system: Ambrosia artemisiifolia (AMBEL), common ragweed; assay: Postemergence herbicide evaluation, growth of Ambrosia artemisiifolia (AMBEL); assay type: in vivo; conditions: Ambrosia artemisiifolia, post-emergence, read-out: AVE. AMBEL, percent reduction in plant size relative to the untreated control; for pest or weed control at 280 g/ha: 280 g ae/ha; for pest or weed control at 560 g/ha: 560 g ae/ha
[2] = test system: weeds ABUTH, AMATA, AMBEL, CHEAL, ERICA; assay: Postemergence herbicide evaluation, overall average % weed control (ABUTH, AMATA, AMBEL, CHEAL, ERICA); assay type: in vivo; conditions: post-emergence, read-out: Overall Ave % Weed Control; for pest or weed control at 280 g/ha: 280 g ae/ha; for pest or weed control at 560 g/ha: 560 g ae/ha
[3] = test system: Chenopodium album (CHEAL), common lambsquarters; assay: Postemergence herbicide evaluation, growth of Chenopodium album (CHEAL); assay type: in vivo; conditions: Chenopodium album, post-emergence, read-out: Ave. CHEAL, percent reduction in plant size relative to the untreated control; for pest or weed control at 280 g/ha: 280 g ae/ha; for pest or weed control at 560 g/ha: 560 g ae/ha
[4] = test system: Abutilon theophrasti (ABUTH), velvetleaf; assay: Postemergence herbicide evaluation, growth of Abutilon theophrasti (ABUTH); assay type: in vivo; conditions: Abutilon theophrasti, post-emergence, read-out: AVE. ABUTH, percent reduction in plant size relative to the untreated control; for pest or weed control at 280 g/ha: 280 g ae/ha; for pest or weed control at 560 g/ha: 560 g ae/ha
[5] = test system: Amaranthus rudis (AMATA), tall water hemp; assay: Postemergence herbicide evaluation, growth of Amaranthus rudis (AMATA); assay type: in vivo; conditions: Amaranthus tuberculatus, post-emergence, read-out: Ave. AMATA, percent reduction in plant size relative to the untreated control; for pest or weed control at 280 g/ha: 280 g ae/ha; for pest or weed control at 560 g/ha: 560 g ae/ha
[6] = test system: glyphosate resistant Conyza canadensis (L.) (ERICA), horseweed; assay: Postemergence herbicide evaluation, growth of Conyza canadensis (ERICA); assay type: in vivo; conditions: Erigeron canadensis, post-emergence, read-out: Ave. ERICA, percent reduction in plant size relative to the untreated control; for pest or weed control at 280 g/ha: 280 g ae/ha; for pest or weed control at 560 g/ha: 560 g ae/ha
[7] = Volatility of compounds measured by thermogravimetric analysis (TGA); assay type: physicochemical

| Structure (SMILES) | pest or weed control at 280 g/ha ([1]; 168 h, 7 DAA) [%] | pest or weed control at 560 g/ha ([1]; 168 h, 7 DAA) [%] | pest or weed control at 280 g/ha ([1]; 336 h, 14 DAA) [%] | pest or weed control at 560 g/ha ([1]; 336 h, 14 DAA) [%] | pest or weed control at 280 g/ha ([1]; 504 h, 21 DAA) [%] | pest or weed control at 560 g/ha ([1]; 504 h, 21 DAA) [%] | pest or weed control at 280 g/ha ([2]; 168 h, 7 DAA) [%] | pest or weed control at 560 g/ha ([2]; 168 h, 7 DAA) [%] | pest or weed control at 280 g/ha ([2]; 336 h, 14 DAA) [%] | pest or weed control at 560 g/ha ([2]; 336 h, 14 DAA) [%] | pest or weed control at 280 g/ha ([2]; 504 h, 21 DAA) [%] | pest or weed control at 560 g/ha ([2]; 504 h, 21 DAA) [%] | pest or weed control at 280 g/ha ([3]; 168 h, 7 DAA) [%] | pest or weed control at 560 g/ha ([3]; 168 h, 7 DAA) [%] | pest or weed control at 280 g/ha ([3]; 336 h, 14 DAA) [%] | pest or weed control at 560 g/ha ([3]; 336 h, 14 DAA) [%] | pest or weed control at 280 g/ha ([3]; 504 h, 21 DAA) [%] | pest or weed control at 560 g/ha ([3]; 504 h, 21 DAA) [%] | pest or weed control at 280 g/ha ([4]; 168 h, 7 DAA) [%] | pest or weed control at 560 g/ha ([4]; 168 h, 7 DAA) [%] | other results |
| --- | --- | --- | --- | --- | --- | --- | --- | --- | --- | --- | --- | --- | --- | --- | --- | --- | --- | --- | --- | --- | --- |
| O=C(COc1ccc(Cl)cc1Cl)Nc1nccs1 [Compound D24] | 77.5 | 67.5 | 80 | 92.5 | 100 | 100 | 70 | 70 | 81.5 | 84.5 | 87 | 91.4 | 82.5 | 75 | 90 | 92.5 | 90 | 95 | 40 | 47.5 | pest or weed control at 280 g/ha ([4]; 336 h, 14 DAA): 55%; pest or weed control at 560 g/ha ([4]; 336 h, 14 DAA): 65%; pest or weed control at 280 g/ha ([4]; 504 h, 21 DAA): 70%; pest or weed control at 560 g/ha ([4]; 504 h, 21 DAA): 70%; pest or weed control at 280 g/ha ([5]; 168 h, 7 DAA): 80%; pest or weed control at 560 g/ha ([5]; 168 h, 7 DAA): 85%; pest or weed control at 280 g/ha ([5]; 336 h, 14 DAA): 87.5%; pest or weed control at 560 g/ha ([5]; 336 h, 14 DAA): 85%; pest or weed control at 280 g/ha ([5]; 504 h, 21 DAA): 77.5%; pest or weed control at 560 g/ha ([5]; 504 h, 21 DAA): 92.5%; pest or weed control at 280 g/ha ([6]; 168 h, 7 DAA): 70%; pest or weed control at 560 g/ha ([6]; 168 h, 7 DAA): 75%; pest or weed control at 280 g/ha ([6]; 336 h, 14 DAA): 95%; pest or weed control at 560 g/ha ([6]; 336 h, 14 DAA): 87.5%; pest or weed control at 280 g/ha ([6]; 504 h, 21 DAA): 97.5%; pest or weed control at 560 g/ha ([6]; 504 h, 21 DAA): 99.5%; TGA Data (rate of weight loss, volatility) [7]: 0.08298 µg/min |
| Cc1nccc(NC(=O)COc2ccc(Cl)cc2Cl)c1C [Compound D26] | 75 | 90 | 70 | 85 | 100 | 100 | 64.5 | 73.5 | 77.5 | 83 | 78.5 | 85 | 75 | 77.5 | 85 | 77.5 | 92.5 | 95 | 42.5 | 55 | pest or weed control at 280 g/ha ([4]; 336 h, 14 DAA): 52.5%; pest or weed control at 560 g/ha ([4]; 336 h, 14 DAA): 65%; pest or weed control at 280 g/ha ([4]; 504 h, 21 DAA): 62.5%; pest or weed control at 560 g/ha ([4]; 504 h, 21 DAA): 70%; pest or weed control at 280 g/ha ([5]; 168 h, 7 DAA): 72.5%; pest or weed control at 560 g/ha ([5]; 168 h, 7 DAA): 85%; pest or weed control at 280 g/ha ([5]; 336 h, 14 DAA): 88.5%; pest or weed control at 560 g/ha ([5]; 336 h, 14 DAA): 87.5%; pest or weed control at 280 g/ha ([5]; 504 h, 21 DAA): 75%; pest or weed control at 560 g/ha ([5]; 504 h, 21 DAA): 87.5%; pest or weed control at 280 g/ha ([6]; 168 h, 7 DAA): 57.5%; pest or weed control at 560 g/ha ([6]; 168 h, 7 DAA): 60%; pest or weed control at 280 g/ha ([6]; 336 h, 14 DAA): 91.5%; pest or weed control at 560 g/ha ([6]; 336 h, 14 DAA): 100%; pest or weed control at 280 g/ha ([6]; 504 h, 21 DAA): 62.5%; pest or weed control at 560 g/ha ([6]; 504 h, 21 DAA): 72.5%; TGA Data (rate of weight loss, volatility) [7]: 0.09713 µg/min |
